14 substances from US9140692B1, “Methods of identifying glycopeptides recognized by disease-associated auto-antibodies” (Glycozym, Inc., priority 2010, dated 2015) can be followed below.

“Also recorded” adds a separate entry of the source.

The subject of the first experiment is human IgG antibodies from cancer patients. As to the kind of experiment: Microarray screening of the larger GalNAc O-glycopeptide library (Table III) with human cancer and control sera. Format: binding. The following applies: FIG. 6; sera at 1:20 dilution, anti-human-IgG Cy3. The text has this: FIG. 6A: glycopeptides 889 (SEQ ID NO: 134), 275a (SEQ ID NO: 86), and 585 (SEQ ID NO: 109). FIG. 6B: glycopeptides 893 (SEQ ID NO: 135), 931-C3 (SEQ ID NO: 146), and 852-C3 (SEQ ID NO: 145). FIG. 6C: gycopeptides 873 (SEQ ID NO: 132) and 690 (SEQ ID NO: 116). The following human sera were used for FIGS. 6A and 6B: 32 ovarian cancer (O), 38 breast cancer (B), 54 colon cancer (C), 17 lung cancer (L), as well as 145 normal sera (N) (Asterand Corp). The following sera were used for FIG. 6C: 32 ovarian cancer (O), 38 breast cancer […], 54 colon cancer (C), 42 lung cancer (L), 52 pancreactic cancer (Pn), 35 prostatic cancer (Pr), 8 inflammatory disease (In), 8 benign controls (Bn), and 145 healthy controls (N). Sera were screened at 1:20 dilution. Anti-human-IgG conjugated to Cy3 was used as the secondary detection unit and slides were scanned with a GenePix 4200AL Microarray Scanner.
A larger library of GalNAc O-glycopeptides designed with GalNAc linked to serine or threonine at position 12 in 20-mer peptides was produced as described in Example 1. Peptides were selected among cell membrane and secreted human proteins that contain serine and threonine residues that are predicted to be O-glycosylated by the NetOGlyc algorithm (Julenius et al. 2005). A total of 960 GalNAc glycopeptides were synthesized at 0.5 mg scale (Sigma) and printed on microarray hydrogel slides (Schott Nexterion) as described in Example 1. Slides were reacted with human cancer sera (ovarian, breast, colon, lung, pancreas, prostate, 235 total sera) and control sera (145 healthy, 20 inflammatory, 20 benign tumor). Glycopeptides preferentially reactive with human IgG antibodies from cancer patients compared to controls were selected for resynthesis at 5 mg scale with amidated C-terminus (New England Peptide (Gardner, Mass.) (Table III). Resynthesized glycopeptides were reprinted on microarray slides at 50 μM and reacted with human cancer sera (Total 286 sera: 32 ovarian cancer (O), 38 breast cancer (B), 54 colon cancer (C), 17 lung cancer (L), and 145 age and sex matched control normal sera as described in Example 1. Table III lists glycopeptides exclusively or preferentially reactive with human IgG from cancer patients compared to controls and examples of reactivities are shown in FIG. 6.
Since IgG antibodies reactive with glycopeptides epitopes recognize both the peptide sequence in close proximity to the O-glycan (i.e., one to five or even eighth residues N- and C-terminal of the O-glycan) as well as the O-glycan structure, it is clear that different glycoforms of one glycopeptide may be recognized by different IgG antibodies and these antibodies may be found in different cancer patients. In this Example, GalNAc-glycopeptides from MUC1 and MUC4 were also produced as the core 3 GlcNAcβ1-3GalNAcα1-O-Ser/Thr glycoform with a recombinant core 3 synthase as described in Example 1.
As to “H2N-VPVTRPALGSTT[GlcNAc] PPAHDVTS-amide (H-VPVTRPALGSTTPPAHDVTS-NH2; not fully specified (residue 12)) [Peptide 852-C3]”, the “reactivity with IgG from newly diagnosed cancer patients compared to normal control sera” value was “reactive with IgG from newly diagnosed cancer patients”.
The same measure, in the same setting: under “H2N-TDCGGPKDHPLTCDDPRFQA-amide (H-TDCGGPKDHPLTCDDPRFQA-NH2; cysteine pairing not given here; also: O-GalNAc glycopeptide, site not shown) [Peptide 585]” stands “reactive with IgG from newly diagnosed cancer patients”; under “H2N-LAKMYYSAVEPTKDIFTGLI-amide (H-LAKMYYSAVEPTKDIFTGLI-NH2; also: O-GalNAc glycopeptide, sites not given here) [Peptide 275a]”, “reactive with IgG from newly diagnosed cancer patients”.
The same measure, in the same setting: to “H2N-SLASQATDIFST[GlcNAc] VPPTPPSI-amide [Peptide 931-C3]” belongs “reactive with IgG from newly diagnosed cancer patients”; to “H2N-PGTSTTPSQPNSAGVQDTEM-amide (H-PGTSTTPSQPNSAGVQDTEM-NH2; also: O-GalNAc glycopeptide, sites not given here) [Peptide 690]”, “reactive with IgG from newly diagnosed cancer patients”; to “H2N-HDVETQFNQYKTEAASRYNL-amide (H-HDVETQFNQYKTEAASRYNL-NH2; also: O-GalNAc glycopeptide, sites not given here) [Peptide 889]”, “reactive with IgG from newly diagnosed cancer patients”.
On to “H2N-ASRYNLTISDVSVSDVPFPF-amide (H-ASRYNLTISDVSVSDVPFPF-NH2; also: O-GalNAc glycopeptide, sites not given here) [Peptide 893]”, for which the “reactivity with IgG from newly diagnosed cancer patients compared to normal control sera” value is listed as “reactive with IgG from newly diagnosed cancer patients”.
On the same count and under the same terms, to “H2N-TKTDASSTHHSTVPPLTSSN-amide (H-TKTDASSTHHSTVPPLTSSN-NH2; also: O-GalNAc glycopeptide, sites not given here) [Peptide 873]” belongs “reactive with IgG from newly diagnosed cancer patients”.

Staying with this experiment, now noted: resynthesized glycopeptides printed at 50 μM; cancer sera and 145 control normal sera.
“H2N-VPVTRPALGSTT[GlcNAc] PPAHDVTS-amide (H-VPVTRPALGSTTPPAHDVTS-NH2; not fully specified (residue 12)) [Peptide 852-C3]”: the “reactivity with human IgG from cancer patients compared to controls” value is “exclusively recognized by IgG antibodies in sera from cancer patients”.
The same measure, in the same setting: to “H2N-SLASQATDIFST[GlcNAc] VPPTPPSI-amide [Peptide 931-C3]” belongs “exclusively recognized by IgG antibodies in sera from cancer patients”.

The subject of the next experiment is human IgG antibodies (cancer-associated auto-antibodies in serum). As to the kind of experiment: Glycopeptide microarray screening of the 96 paired peptide/GalNAc-glycopeptide library with human sera. Format: binding. To be noted: serum of newly diagnosed prostate cancer patient #762, 1:25 dilution, labeled anti-human IgG; FIG. 2. From the text:
A panel of human sera was obtained from CHTN (Cooperative Human Tissue Network) and Asterand Inc., under the guidelines of approved agreements by the providers. Sera obtained were from control individuals (“normal”) (n=31) and from newly diagnosed cancer patients (n=147) with pancreatic, breast, colon, lung, prostate or ovary primary cancers. Briefly, for cancer sera, all blood samples were obtained on or near date of diagnosis, and serum was processed immediately, flash frozen and stored at −70° C. until shipment. Serum samples received from the providers as frozen aliquots generally of 1-2 mL were brought to room temperature, vortexed and distributed into 20-100 μL aliquots in closeable Eppendorf tubes (vWR) (pre-labeled), and immediately frozen and stored at −70° C. until use.
Glycopeptides (20-mers with and without a single GalNAc residue at position 12) and control structures (corresponding unglycosylated peptides) were printed on Corning (Corning, N.Y.), Scienion (Germany) or Schott Nexterion® Slide H or Schott Nexterion® Slide H MPX 16 (Schott AG, Mainz, Germany) by JPT (Germany). Triplicates or quadruplicates of all compounds were printed at optimal concentrations (1-50 μM) or 50× excess relative to scale of synthesis for spot-synthesized glycopeptides printed without purification. After printing, slides were incubated for 1 hour (h) in a humidified hybridization chamber with 70-100% relative humidity and stored until use at 4° C. Unspotted slide areas were blocked for 1 h with 25 mM ethanolamine in 100 mM sodium borate pH 8.5. If an enzyme step was needed either to increase sites of GaLNac attachments in peptides or extend O-glycans to T, STn, core 3 or other structures, addition of the enzyme reaction mixture in 25-35 μL was made in appropriate wells and the slide incubated at 37° C. for 1 h, after which it was washed in PBS/0.05% Tween and then PBS, and then spun dry.
Human sera (usually diluted 1:25), monoclonal antibodies, lectins and the like were added in 25 μL and the slide left at room temperature for 2 h in a moist, humid chamber after which it was washed as above and spun dry (if no superstructure). Secondary antibodies were added at appropriate concentrations (for human sera, usually 1:1500 for anti-human IgG with a Cy3 chromophore). In some cases, for some controls, lectin-Cy3 was used directly as final step. The final step was washing as above, with a brief de-ionized water wash and the slide spun dry for scanning Analysis was made on a GenePix 4200AL Scanner at PMT 400 and power mode 10-50. Data were analyzed and plotted using Microsoft Excel.
Glycopeptides (20-mers with and without a single GalNAc residue at position 12) were printed in triplicates (horizontal) on Scineon 16-well slides by JPT (Germany) and bound human IgG antibodies detected by a labeled secondary anti-human IgG antibody. FIG. 2 illustrates examples of reactivities of serum (1:25 dilution) from a newly diagnosed prostate cancer patient (#762 in Panel A) and a normal control serum from a healthy individual (#174 in Panel B) on the library of 96 paired peptides/GalNAc-glycopeptides as designated in Table II. Candidate cancer-associated IgG antibodies identified in the cancer serum directed to GalNAc glycopeptide epitopes are indicated by open circles labeled 20/21, 62/63, and 86/87 for the paired peptide and GalNAc glycopeptides, respectively. […]
FIG. 4 illustrates results of screening 147 cancer sera and 31 normal sera on the glycopeptide pair #62/63. FIG. 5 illustrates results of screening 147 cancer sera and 31 normal sera on the glycopeptide pair #86/87.
For “SHHSDESDELVTDFPTDLPA [Peptide 21, derived from SPP1]”, the “reactivity of serum IgG antibodies with printed peptide/GalNAc-glycopeptide” value was “specifically reacting; also recorded: labels”.
For “SHHSDESDELVTDFPTDLPA [Peptide 20, derived from SPP1]”, the “reactivity of serum IgG antibodies with printed peptide/GalNAc-glycopeptide” value is “do not react; also recorded: not the corresponding peptide”.
Same read-out and setting: to “SESFPHPGFNMSLLENHTRQ [Peptide 87, derived from KLK1]” belongs “specifically reacting; also recorded: labels”; to “SESFPHPGFNMSLLENHTRQ [Peptide 86, derived from KLK1]”, “do not react; also recorded: not the corresponding peptide”.
In the case of “TPTPKEKPEAGTYSVNNGND [Peptide 63, derived from LAMP2]”, the “reactivity of serum IgG antibodies with printed peptide/GalNAc-glycopeptide” value was “specifically reacting; also recorded: labels”.
Same read-out and setting: to “TPTPKEKPEAGTYSVNNGND [Peptide 62, derived from LAMP2]” belongs “do not react; also recorded: not the corresponding peptide”.
